Data reported in patent EP4813381A1, “PHARMACEUTICAL USE OF GUAIANE SESQUITERPENE DERIVATIVE” (Nanjing University Of Chinese Medicine, priority 2023, dated 2025).

Key:
[1] = system: MDSCs and T cells; assay: T cell proliferation in a co-culture model of MDSCs and T cells (flow cytometry); type: cell-based, mice; details: MDSCs treated with 1 µM compound for 12 h, 48 h co-culture with T cells (1:1), compared to the control group
Protocol: Under sterile conditions, the tibia was removed, both ends of the bone were cut, and bone marrow was repeatedly flushed into a 15 mL centrifuge tube using a 1 mL syringe filled with culture medium. Centrifuge at 1600 rpm for 5 min to collect bone marrow cells. […] The spleen cell suspension was then transferred into a 15 mL centrifuge tube. Centrifuge at 1600 rpm for 5 min to collect T cells. Wash twice with 1×PBS. Resuspend the centrifuged T cells in 1 mL PBS and add 1 mL of 10 µM CFDA-SE solution. Incubate at room temperature for 8 min. […] After drug administration, collect MDSC cells into centrifuge tubes. Centrifuge at 1600 rpm for 5 min, remove supernatant, resuspend in 1 mL fresh medium, and plate. Add 1 mL stimulated activated T cells (1:1 ratio) for 48 h co-culture. After incubation, collect cells into centrifuge tubes, wash twice with PBS, and incubate with Fc antibody at room temperature in the dark for 10 min. Add CD3-labeled flow cytometry antibody and incubate at 4 °C in the dark for 30 min. After incubation, wash cells with PBS, resuspend in 300 µL PBS, and analyze by flow cytometry.

[2] = Water solubility testing of compounds (HPLC); details: deionized water, 37 °C water bath
[3] = system: chronic kidney injury induced by unilateral ureteral ligation; assay: Unilateral ureteral ligation (UUO) chronic kidney injury model in mice: Scr and BUN; type: in vivo, C57BL/6 mice; details: serum, 14 days
[4] = system: renal injury markers (Ngal, Havcr1), inflammatory cytokines (TNF, IL-6, IL-1), fibrosis-related factors (α-Sma, Col1a1, Tgfb1); assay: Folic acid acute kidney injury model in mice: Q-PCR of kidney tissue; type: in vivo, C57BL/6 mice; details: kidney mRNA, acute model (FA)
[5] = Conversion rate of salt-form prodrugs to parent compound in HEPES buffer solution; type: physicochemical; details: conversion to Compound 1, HEPES buffer pH 7.4, 37 °C
Protocol: Adjust the pH to 7.4 using 0.5 M NaOH, then dilute to a final volume 100 mL with distilled water.
(§1) Sample Analysis: Dissolve 0.6 mg of the compound in 250 µl of deionized water separately. Add 250 µl of mouse serum or HEPES 7.4 solution to the sample, incubate at a constant temperature of 37 °C, and collect samples at different time points. Pipette 20 µl of the sample to an EP tube, add 60 µl of methanol, vortex to mix thoroughly, and centrifuge at 12,000 rpm at 4 °C for 10 min. At 1 h, 2 h, 4 h, 8 h, and 12 h respectively, collect the supernatant for HPLC analysis. Inject 10 µL of sample and record the corresponding peak areas.

[6] = Conversion rate of salt-form prodrugs to parent compound in mouse plasma; type: in vitro ADME; details: conversion to Compound 1, mouse plasma, 37 °C
Protocol: Pharmaceutically acceptable salts of guaiane-type sesquiterpene lactone derivatives were selected and evaluated for their conversion rates to Compound 1 and Compound 83 in plasma and HEPES buffer, with results shown in Tables 2-1, 2-2, 3-1, and 3-2.
Plasma Preparation: Collect mouse plasma into an EP tube pre-loaded with sodium heparin, centrifuge at 8000 rpm for 10 minutes at 4°C, and then collect the supernatant.
as §1, with “areas. Chromatographic conditions: Hanbang C18 column (4.6 × 250 mm, 5 µm); mobile phase: acetonitrile: […] ammonium formate solution = 60:40; flow rate 1.0 mL/min; detection wavelength 210 nm; column temperature 30 °C. [drawing 171] Table 2-1. Conversion Rate of Compounds 20-42 to Compound 1 at Different Time Points in HEPES Buffer Solution” for “areas.”

SMILES	T-cell proliferation rate (%) [1]	Water-solubility [2]	other results
CCOC(=O)[C@@H]1CCCN1C[C@@H]1C(=O)O[C@H]2[C@H]1CC[C@@]1(C)C[C@]13CC[C@@](C)(O)[C@H]23 [compound 4]	++ (T-cell proliferation rate within the 20-40% range compared to the control group)	0.822 mg/mL	–
C[C@@]12CC[C@@H]3[C@H](OC(=O)[C@H]3CN3CCNCC3)[C@@H]3[C@]1(CC[C@@]3(C)O)C2 [compound 7]	–	1.488 mg/mL	–
CCCN(CCC)C[C@@H]1C(=O)O[C@H]2[C@H]1CC[C@@]1(C)C[C@]13CC[C@@](C)(O)[C@H]23 [compound 10]	–	0.715 mg/mL	–
CCCCN(CCCC)C[C@@H]1C(=O)O[C@H]2[C@H]1CC[C@@]1(C)C[C@]13CC[C@@](C)(O)[C@H]23 [compound 11]	–	0.682 mg/mL	–
C[C@@]12CC[C@@H]3[C@H](OC(=O)[C@H]3CN3CC4CCCC4C3)[C@@H]3[C@]1(CC[C@@]3(C)O)C2 (some centres unmarked) [compound 13]	–	0.419 mg/mL	–
C[C@@]12CC[C@@H]3[C@H](OC(=O)[C@H]3CN3CCC4(CCCC4)CC3)[C@@H]3[C@]1(CC[C@@]3(C)O)C2 [compound 15]	–	0.310 mg/mL	–
C[C@@]12CC[C@@H]3[C@H](OC(=O)[C@H]3CN3CCC4(CC3)CC4)[C@@H]3[C@]1(CC[C@@]3(C)O)C2 [compound 18]	–	0.584 mg/mL	–
C[C@@]12CC[C@@H]3[C@H](OC(=O)[C@H]3CN3CCCCCCC3)[C@@H]3[C@]1(CC[C@@]3(C)O)C2 [compound 19]	–	0.623 mg/mL	–
CN(C)C[C@@H]1C(=O)O[C@H]2[C@H]1CC[C@@]1(C)C[C@]13CC[C@@](C)(O)[C@H]23 [compound 21]	–	–	BUN ([3]; oral gavage 0.1 mg/kg): 17.63±1.13; Scr ([3]; oral gavage 0.1 mg/kg): 157.79±21.92; BUN ([3]; oral gavage 1 mg/kg, 1 mg/kg): 9.45±1.55; Scr ([3]; oral gavage 1 mg/kg, 1 mg/kg): 79.87±13.44; α-Sma ([4]; oral 0.1 mg/kg): 1.80±0.42; α-Sma ([4]; oral 1 mg/kg, 1 mg/kg): 0.90±0.21; Release rate ([5]; 1 h): 3.3%; Release rate ([5]; 2 h): 10.2%; Release rate ([5]; 4 h): 18.1%; Release rate ([5]; 8 h): 38.9%; Release rate ([5]; 12 h): 51.9%; Release rate ([6]; 1 h): 5.4%; Release rate ([6]; 2 h): 10.7%; Release rate ([6]; 4 h): 17.9%; Release rate ([6]; 8 h): 39.3%; Release rate ([6]; 12 h): 55.4%
C=C1C(=O)O[C@H]2[C@H]1CCC(C)=C1CC[C@@](C)(OC(=O)N3CCC(C)CC3)[C@@H]12 [compound 84]	++ (T-cell proliferation rate within the 20-40% range compared to the control group)	–	–
C=C1C(=O)O[C@H]2[C@H]1CCC(C)=C1CC[C@@](C)(OC(=O)N3CCN(C)CC3)[C@@H]12 [compound 85]	+ (T-cell proliferation rate within the 0-20% range compared to the control group)	–	–
C=C1C(=O)O[C@H]2[C@H]1CCC(C)=C1CC[C@@](C)(OC(=O)N3CCN(CC)CC3)[C@@H]12 [compound 86]	++ (T-cell proliferation rate within the 20-40% range compared to the control group)	–	–
C=C1C(=O)O[C@H]2[C@H]1CCC(C)=C1CC[C@@](C)(OC(=O)N3CCOCC3)[C@@H]12 [compound 87]	+++ (T-cell proliferation rate >40% compared to the control group)	–	–
C=C1C(=O)O[C@H]2[C@H]1CCC(C)=C1CC[C@@](C)(OC(=O)NCC(C)C)[C@@H]12 [compound 88]	++ (T-cell proliferation rate within the 20-40% range compared to the control group)	–	–
C=C1C(=O)O[C@H]2[C@H]1CCC(C)=C1CC[C@@](C)(OC(=O)NCC(F)F)[C@@H]12 [compound 89]	++ (T-cell proliferation rate within the 20-40% range compared to the control group)	–	–
C=C1C(=O)O[C@H]2[C@H]1CCC(C)=C1CC[C@@](C)(OC(=O)N(C)CCC)[C@@H]12 [compound 90]	++ (T-cell proliferation rate within the 20-40% range compared to the control group)	–	–
C=C1C(=O)O[C@H]2[C@H]1CCC(C)=C1CC[C@@](C)(OC(=O)N(CC)CCC)[C@@H]12 [compound 91]	++ (T-cell proliferation rate within the 20-40% range compared to the control group)	–	–
C=C1C(=O)O[C@H]2[C@H]1CCC(C)=C1CC[C@@](C)(OC(=O)NCCCN3CCOCC3)[C@@H]12 [compound 92]	++ (T-cell proliferation rate within the 20-40% range compared to the control group)	–	–
C=C1C(=O)O[C@H]2[C@H]1CCC(C)=C1CC[C@@](C)(OC(=O)NCCCN3CCN(C)CC3)[C@@H]12 [compound 93]	++ (T-cell proliferation rate within the 20-40% range compared to the control group)	–	–
C=C1C(=O)O[C@H]2[C@H]1CCC(C)=C1CC[C@@](C)(OC(=O)N3CCC(N4CCOCC4)CC3)[C@@H]12 [compound 94]	++ (T-cell proliferation rate within the 20-40% range compared to the control group)	–	–
C=C1C(=O)O[C@H]2[C@H]1CCC(C)=C1CC[C@@](C)(OC(=O)NCCN3CCN(C)CC3)[C@@H]12 [compound 95]	++ (T-cell proliferation rate within the 20-40% range compared to the control group)	–	–
CC1=C2CC[C@@](C)(OC(=O)N3CCCCC3)[C@@H]2[C@H]2OC(=O)[C@@H](CN3CCCC3)[C@@H]2CC1 [compound 96]	+ (T-cell proliferation rate within the 0-20% range compared to the control group)	–	–
CC1=C2CC[C@@](C)(OC(=O)N3CCCCC3)[C@@H]2[C@H]2OC(=O)[C@@H](CN(C)C)[C@@H]2CC1 [compound 97]	+ (T-cell proliferation rate within the 0-20% range compared to the control group)	–	–
C=C1C(=O)O[C@H]2[C@H]1CCC(C)=C1CC[C@@](C)(OC(=O)NCCN3CCOCC3)[C@@H]12 [compound 98]	+ (T-cell proliferation rate within the 0-20% range compared to the control group)	202.5 mg/mL	–
